Test results from US20040209799A1, “JAK/STAT pathway inhibitors and the uses thereof” (priority 2000, published 2004).

Columns and labels:
Assay type in all cases: biochemical
[1] = biological target: T1, ZAP-70 (ζ-associated polypeptide of 70 kDa) protein tyrosine kinase (Homo sapiens, UniProt P43403); assay: poly (Glu, Tyr) 4:1 ELISA, ZAP-70
T1 sequence (P43403 1-619): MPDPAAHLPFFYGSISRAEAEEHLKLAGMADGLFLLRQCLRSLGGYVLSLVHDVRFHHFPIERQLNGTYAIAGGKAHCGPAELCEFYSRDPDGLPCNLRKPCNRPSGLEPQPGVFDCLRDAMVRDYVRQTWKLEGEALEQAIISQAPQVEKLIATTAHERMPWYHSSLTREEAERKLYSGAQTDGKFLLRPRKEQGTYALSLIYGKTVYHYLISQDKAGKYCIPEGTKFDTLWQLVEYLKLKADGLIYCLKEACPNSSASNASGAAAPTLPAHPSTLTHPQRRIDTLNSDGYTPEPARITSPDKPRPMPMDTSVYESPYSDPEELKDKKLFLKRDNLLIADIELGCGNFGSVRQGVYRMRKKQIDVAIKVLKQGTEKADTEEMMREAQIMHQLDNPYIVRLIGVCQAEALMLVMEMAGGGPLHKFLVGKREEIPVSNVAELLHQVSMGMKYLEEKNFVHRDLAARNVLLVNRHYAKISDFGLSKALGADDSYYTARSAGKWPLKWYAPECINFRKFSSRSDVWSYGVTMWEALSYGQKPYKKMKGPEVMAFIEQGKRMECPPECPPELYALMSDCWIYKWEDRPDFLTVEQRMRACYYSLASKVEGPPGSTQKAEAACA
Description: (§1) To further examine the inhibition characteristics of DBH (and its variants) to a variety of cellular components, a poly (Glu, Tyr) 4:1 ELISA was performed. Hymenialdisine (H), DBH (as marine sponge extracts: see Chipman and Faulkner, 1997), and three variant forms of synthetic DBH: the free base form of DBH (DBH-2FB), a trifluoroacetic acid salt form of DBH (DBH-2S), and a methanesulfonic acid salt form of DBH (DBH 1) were solubilized in DMSO, and tested for the ability to inhibit; ZAP-70 (ζ-associated polypeptide of 70 kDa) protein tyrosine kinase, BTK (Bruton's agarnrnaglobulinaemia tyrosine kinase), JAK3 (Janus kinase 3) protein tyrosine kinase, LCK (Lymphoid T-cell protein tyrosine kinase), and IGFR (Insulin-like growth factor receptor) protein tyrosine kinase.
(§2) Maxisorb microtiter plates (Nalge Nunc International, Rochester, N.Y.) were coated with 1 mg/ml Poly(Glu,Tyr) 4:1 (Sigma, St. Louis, Mo.) solubilized in phosphate buffered saline (PBS), 0.02% sodium azide. On the day of the assay, microtiter plates were washed 4× with TBS-Tween (25 mM Tris pH 8.0, 150 mM NaCl, 0.05% Tween 20) using a Skatron plate washer (Skatron Instruments, Sterling, Va.). 200 μl of sterile blocking buffer (3% BSA in PBS, 0.02% sodium azide) was added to each well, and the microtiter plates were incubated at 37° C. for 1 hour. The blocking buffer was removed, the plates washed, and various concentrations of inhibitor were added in a 20 μl volume to the wells. 60 μl of the appropriate substrate mix was then added. Substrate mixes were prepared as described in Table 2:
(§3) Following addition of the substrate mix, 20 μl of the test protein tyrosine kinase (in 1× assay buffer) was added. Kinase reactions were incubated 30 min at 37° C., followed by washes in the Skatron plate washer. 100 μl of biotinylated PT-66 anti-phosphotyrosine monoclonal antibody (Sigma, St. Louis, Mo.) (diluted 1:4000 in 0.5% BSA, sterile-filtered TBS) was added to each well, and incubated for an additional 30 minutes at 37° C. […] The samples were then read at 450 nm in a plate reader.

[2] = biological target: IGFR (Insulin-like growth factor receptor) protein tyrosine kinase (Homo sapiens, UniProt P08069); assay: poly (Glu, Tyr) 4:1 ELISA, IGFR
IGFR (Insulin-like growth factor receptor) protein tyrosine kinase, sequence (P08069 31-1367): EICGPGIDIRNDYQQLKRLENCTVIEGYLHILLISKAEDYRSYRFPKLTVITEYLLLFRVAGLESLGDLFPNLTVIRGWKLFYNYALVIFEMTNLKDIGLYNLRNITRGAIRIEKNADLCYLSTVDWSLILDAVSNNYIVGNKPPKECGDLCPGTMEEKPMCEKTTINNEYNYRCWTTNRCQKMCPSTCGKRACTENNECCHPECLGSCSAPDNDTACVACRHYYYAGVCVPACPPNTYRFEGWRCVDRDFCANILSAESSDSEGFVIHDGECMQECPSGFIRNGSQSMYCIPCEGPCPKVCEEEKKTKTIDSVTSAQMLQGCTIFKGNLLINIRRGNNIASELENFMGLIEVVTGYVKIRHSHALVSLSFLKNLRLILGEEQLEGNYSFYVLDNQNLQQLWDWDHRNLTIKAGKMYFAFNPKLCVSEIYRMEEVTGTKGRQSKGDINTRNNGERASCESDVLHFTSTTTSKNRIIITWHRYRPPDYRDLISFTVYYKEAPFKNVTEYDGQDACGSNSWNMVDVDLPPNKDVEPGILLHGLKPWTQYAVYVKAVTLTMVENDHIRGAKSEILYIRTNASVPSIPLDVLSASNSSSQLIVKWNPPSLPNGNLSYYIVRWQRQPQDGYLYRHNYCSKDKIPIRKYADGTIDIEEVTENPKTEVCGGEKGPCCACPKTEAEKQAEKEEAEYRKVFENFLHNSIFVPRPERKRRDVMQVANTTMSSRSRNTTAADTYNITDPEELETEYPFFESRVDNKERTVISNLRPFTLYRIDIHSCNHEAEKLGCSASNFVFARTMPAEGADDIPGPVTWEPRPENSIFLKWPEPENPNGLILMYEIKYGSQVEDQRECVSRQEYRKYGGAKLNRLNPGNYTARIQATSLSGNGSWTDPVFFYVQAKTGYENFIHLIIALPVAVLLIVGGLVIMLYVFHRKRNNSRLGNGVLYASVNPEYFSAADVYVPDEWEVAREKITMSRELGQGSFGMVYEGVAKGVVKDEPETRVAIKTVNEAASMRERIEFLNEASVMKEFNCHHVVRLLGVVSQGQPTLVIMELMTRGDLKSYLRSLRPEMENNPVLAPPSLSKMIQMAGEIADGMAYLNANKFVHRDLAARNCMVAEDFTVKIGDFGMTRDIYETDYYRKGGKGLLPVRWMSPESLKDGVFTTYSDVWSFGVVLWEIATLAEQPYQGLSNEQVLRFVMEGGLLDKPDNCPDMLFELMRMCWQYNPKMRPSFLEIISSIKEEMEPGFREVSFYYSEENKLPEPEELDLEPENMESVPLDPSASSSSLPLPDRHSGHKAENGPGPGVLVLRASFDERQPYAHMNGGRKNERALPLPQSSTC
Description: as §1, §2, §3

[3] = biological target: BTK (Bruton's agarnrnaglobulinaemia tyrosine kinase) (Homo sapiens, UniProt Q06187); assay: poly (Glu, Tyr) 4:1 ELISA, BTK
BTK (Bruton's agarnrnaglobulinaemia tyrosine kinase), sequence (Q06187 whole entry, species assumed): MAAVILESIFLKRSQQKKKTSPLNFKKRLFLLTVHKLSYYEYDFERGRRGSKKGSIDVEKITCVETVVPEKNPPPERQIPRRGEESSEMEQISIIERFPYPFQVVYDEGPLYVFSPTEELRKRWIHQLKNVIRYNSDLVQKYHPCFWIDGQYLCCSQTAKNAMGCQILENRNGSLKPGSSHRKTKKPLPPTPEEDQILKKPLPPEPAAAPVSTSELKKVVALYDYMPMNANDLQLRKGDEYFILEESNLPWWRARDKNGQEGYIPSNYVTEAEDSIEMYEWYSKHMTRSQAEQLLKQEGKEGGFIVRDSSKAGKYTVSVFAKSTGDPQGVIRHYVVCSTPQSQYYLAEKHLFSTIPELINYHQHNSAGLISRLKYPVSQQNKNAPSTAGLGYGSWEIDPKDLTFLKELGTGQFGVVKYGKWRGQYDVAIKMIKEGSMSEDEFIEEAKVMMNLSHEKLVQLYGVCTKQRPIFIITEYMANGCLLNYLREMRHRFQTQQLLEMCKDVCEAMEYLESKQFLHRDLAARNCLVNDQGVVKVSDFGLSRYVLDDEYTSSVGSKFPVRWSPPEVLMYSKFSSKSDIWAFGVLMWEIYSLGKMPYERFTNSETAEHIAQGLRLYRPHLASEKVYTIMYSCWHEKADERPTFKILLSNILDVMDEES
Description: as §1, §2, §3

[4] = biological target: LCK (Lymphoid T-cell protein tyrosine kinase) (Homo sapiens, UniProt P06239); assay: poly (Glu, Tyr) 4:1 ELISA, LCK
LCK (Lymphoid T-cell protein tyrosine kinase), sequence (P06239 whole entry, species assumed): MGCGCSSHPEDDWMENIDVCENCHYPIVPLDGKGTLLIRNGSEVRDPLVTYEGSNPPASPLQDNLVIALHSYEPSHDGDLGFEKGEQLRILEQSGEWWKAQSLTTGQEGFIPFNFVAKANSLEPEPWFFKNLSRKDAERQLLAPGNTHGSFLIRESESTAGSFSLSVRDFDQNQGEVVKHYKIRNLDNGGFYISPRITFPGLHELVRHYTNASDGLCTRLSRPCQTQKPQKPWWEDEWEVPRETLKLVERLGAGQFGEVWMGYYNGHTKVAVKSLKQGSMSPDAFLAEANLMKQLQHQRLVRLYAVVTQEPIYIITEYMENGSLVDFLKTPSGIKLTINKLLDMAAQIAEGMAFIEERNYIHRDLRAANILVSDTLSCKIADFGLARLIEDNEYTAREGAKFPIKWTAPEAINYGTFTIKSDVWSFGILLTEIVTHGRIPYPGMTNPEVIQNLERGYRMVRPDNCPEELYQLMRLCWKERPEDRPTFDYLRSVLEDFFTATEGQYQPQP
Description: as §1, §2, §3

[5] = ec-50 values ranging from hundreds of micromolar to no inhibition (data not shown)

Row | IC50 ([1]; values for the four kinases range from 1971 μM to no inhibition, read-out: α-50 value for ZAP-70) [µM] | IC50 ([2]; values for the four kinases range from 1971 μM to no inhibition, read-out: α-50 value for IGFR) [µM] | IC50 ([3]; values for the four kinases range from 1971 μM to no inhibition, read-out: α-50 value for BTK) [µM] | IC50 ([4]; values for the four kinases range from 1971 μM to no inhibition, read-out: α-50 value for LCK) [µM] | Inhibition of ZAP-70 [1, 5] | Inhibition of IGFR [2, 5] | Inhibition of BTK [3, 5] | Inhibition of LCK [4, 5] | SMILES
1 | ≥ 1970 | ≥ 1970 | ≥ 1970 | ≥ 1970 |  |  |  |  | NC1=NC(=O)C(=C2CCNC(=O)c3[nH]ccc32)N1 [DBH-2FB]
2 |  |  |  |  | weak | weak | weak | weak | NC1=NC(=O)C(=C2CCNC(=O)c3[nH]ccc32)N1 [DBH, 4-(2-amino-4-oxo-2-imidazolin-5-ylidene)-4,5,6,7-tetrahydropyrrolo(2,3-c) azepine-8-one]
